The AC50 is the midpoint of the concentration-response curve, whichever way the signal moves. A word on the EC50: it is the concentration needed to bring the measured effect to its halfway point. Broadly, the Ki is the dissociation constant of the complex between target and ligand, obtained from inhibition or displacement. The term IC50 denotes the midpoint of a concentration-inhibition curve.

The results in this text go back to ChEMBL document CHEMBL1201862, “PubChem BioAssay data set” (2004).

Molecules are shown by their SMILES. Active and inactive are the calls of the source. Bounds are passed on as bounds.

In experiment [1] the test system is HeLa. Nature of the experiment: viability loss in HeLa cells – cell-based, ATP luminescence, cherry-pick samples, cytotoxicity control, dose response (AID 687004). It counts as functional. The conditions noted are these: Homo sapiens.
Experiment [2] deals with HEK293. Nature of the experiment: viability loss in HEK293T cells – cell-based, ATP luminescence, cherry-pick samples, cytotoxicity control, dose response (AID 687005).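 Further: cells exposed to compound for 48 hours.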 It counts as functional. The conditions noted are these: Homo sapiens.
Experiment [3] can be described thus: HEK293 Cytotoxicity Assay Measured in Cell-Based System Using Plate Reader - 7071-01_Inhibitor_Dose_CherryPick_Activity_Set2. Format: functional.
The target in experiment [4] is T1, Oxysterols receptor LXR-beta (Homo sapiens, UniProt P55055).
T1 sequence (P55055 whole entry): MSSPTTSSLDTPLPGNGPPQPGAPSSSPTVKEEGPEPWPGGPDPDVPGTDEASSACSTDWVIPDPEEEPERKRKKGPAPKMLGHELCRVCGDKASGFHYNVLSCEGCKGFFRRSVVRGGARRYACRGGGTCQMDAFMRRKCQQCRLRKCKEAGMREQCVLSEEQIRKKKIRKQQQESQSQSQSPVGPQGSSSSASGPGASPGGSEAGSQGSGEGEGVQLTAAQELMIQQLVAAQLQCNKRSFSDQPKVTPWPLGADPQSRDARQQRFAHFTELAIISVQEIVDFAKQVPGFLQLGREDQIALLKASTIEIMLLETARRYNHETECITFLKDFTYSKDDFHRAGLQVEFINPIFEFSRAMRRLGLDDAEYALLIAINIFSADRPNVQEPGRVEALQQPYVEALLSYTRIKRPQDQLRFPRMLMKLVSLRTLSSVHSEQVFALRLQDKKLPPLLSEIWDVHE
It counts as functional, cell-based.

The target of experiment [5] is T1, Oxysterols receptor LXR-beta. Format: functional, cell-based. This is another data set of the same source.
Experiment [6] in a line: cells.
For experiment [7], the target named is fMet-Leu-Phe receptor (Homo sapiens, UniProt P21462). Nature of the experiment: formyl peptide receptor binders – dose response (AID 519). Format: functional.
Sequence of fMet-Leu-Phe receptor (P21462 whole entry): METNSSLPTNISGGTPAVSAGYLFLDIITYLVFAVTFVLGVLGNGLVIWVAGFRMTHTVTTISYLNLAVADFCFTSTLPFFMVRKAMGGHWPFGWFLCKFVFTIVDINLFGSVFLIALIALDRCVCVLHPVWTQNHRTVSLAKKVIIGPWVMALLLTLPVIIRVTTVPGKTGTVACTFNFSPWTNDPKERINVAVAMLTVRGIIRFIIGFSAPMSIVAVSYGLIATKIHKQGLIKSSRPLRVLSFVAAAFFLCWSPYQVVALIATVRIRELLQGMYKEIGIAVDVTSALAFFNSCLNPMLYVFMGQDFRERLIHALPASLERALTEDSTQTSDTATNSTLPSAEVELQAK
For experiment [8], the target named is T2, Methionyl-tRNA synthetase, putative (Trypanosoma brucei brucei, UniProt Q38C91).
T2 sequence (Q38C91 whole entry): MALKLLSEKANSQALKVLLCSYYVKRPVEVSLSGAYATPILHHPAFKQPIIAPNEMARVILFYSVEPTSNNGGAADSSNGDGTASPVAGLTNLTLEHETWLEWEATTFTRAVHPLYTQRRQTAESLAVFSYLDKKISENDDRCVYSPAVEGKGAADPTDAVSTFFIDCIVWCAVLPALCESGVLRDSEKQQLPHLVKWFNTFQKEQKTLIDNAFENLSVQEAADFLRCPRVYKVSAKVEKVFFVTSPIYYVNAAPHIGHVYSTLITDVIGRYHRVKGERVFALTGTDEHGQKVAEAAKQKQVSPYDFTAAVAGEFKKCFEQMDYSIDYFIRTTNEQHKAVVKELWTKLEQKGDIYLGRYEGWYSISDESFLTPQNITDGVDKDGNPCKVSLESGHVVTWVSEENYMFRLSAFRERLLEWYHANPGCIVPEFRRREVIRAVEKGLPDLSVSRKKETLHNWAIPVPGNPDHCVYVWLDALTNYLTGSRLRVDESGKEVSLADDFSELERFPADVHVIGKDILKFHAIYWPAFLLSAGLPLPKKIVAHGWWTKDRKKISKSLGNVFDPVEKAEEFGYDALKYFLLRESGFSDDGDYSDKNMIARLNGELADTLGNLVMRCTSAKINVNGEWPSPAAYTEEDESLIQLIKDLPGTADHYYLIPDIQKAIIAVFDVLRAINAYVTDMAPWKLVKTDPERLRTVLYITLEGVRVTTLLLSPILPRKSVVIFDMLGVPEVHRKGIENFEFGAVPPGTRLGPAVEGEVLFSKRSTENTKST
Format: functional, Trypanosoma brucei brucei strain 927/4 GUTat10.1.

The nature of experiment [9]: Counterscreen for inhibitors of Trypanosoma brucei methionyl tRNA synthetase (MetRS): Luminescence-based cell-based high throughput dose response assay to identify compounds that are cytotoxic to Jurkat human T lymphocyte cells. Format: functional. (In general: The purpose of a counterscreen is to sort out artefacts and off-target activity.)
Experiment [10] addresses T2, Methionyl-tRNA synthetase, putative. Format: functional, Trypanosoma brucei brucei strain 927/4 GUTat10.1. The source holds these as a separate data set.
Experiment [11] addresses T3, Bcl-2-related protein A1 (Mus musculus, UniProt Q07440).
T3 sequence (Q07440 whole entry): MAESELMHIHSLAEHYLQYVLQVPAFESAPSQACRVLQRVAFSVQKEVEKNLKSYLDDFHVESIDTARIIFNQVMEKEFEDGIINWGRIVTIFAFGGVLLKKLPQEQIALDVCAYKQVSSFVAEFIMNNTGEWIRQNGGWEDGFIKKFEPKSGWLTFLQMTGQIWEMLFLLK
Format: functional.

Experiment [12] concerns the target T4, Ubiquitin-conjugating enzyme E2 N (Homo sapiens, UniProt P61088).
T4 sequence (P61088 whole entry): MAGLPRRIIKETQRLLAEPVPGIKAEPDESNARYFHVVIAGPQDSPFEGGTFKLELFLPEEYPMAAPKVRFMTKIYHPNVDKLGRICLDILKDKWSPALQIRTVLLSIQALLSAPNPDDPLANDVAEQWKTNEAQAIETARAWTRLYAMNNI
Format: functional.

In experiment [13] the target is T4, Ubiquitin-conjugating enzyme E2 N. Format: functional. This is another data set of the same source.
The target of experiment [14] is DNA repair protein RAD52 homolog (Homo sapiens, UniProt P43351). It counts as functional, biochemical.
Sequence of DNA repair protein RAD52 homolog (P43351 whole entry): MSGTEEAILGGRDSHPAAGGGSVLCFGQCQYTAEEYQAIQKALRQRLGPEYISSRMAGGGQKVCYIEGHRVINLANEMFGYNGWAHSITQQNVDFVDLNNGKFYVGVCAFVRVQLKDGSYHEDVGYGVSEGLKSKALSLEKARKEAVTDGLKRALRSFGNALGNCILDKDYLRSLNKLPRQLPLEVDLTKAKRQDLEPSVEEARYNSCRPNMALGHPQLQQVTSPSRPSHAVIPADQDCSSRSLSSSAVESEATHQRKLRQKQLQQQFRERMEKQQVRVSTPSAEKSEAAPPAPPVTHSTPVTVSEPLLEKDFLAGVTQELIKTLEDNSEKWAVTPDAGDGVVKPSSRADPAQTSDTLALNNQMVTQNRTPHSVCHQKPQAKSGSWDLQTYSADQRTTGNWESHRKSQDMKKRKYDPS
Experiment [15] addresses Beta-galactosidase (Escherichia coli, UniProt Q8VNN2). Nature of the experiment: Dose response counterscreen for EBI2 assay utilizing the enzyme, b-galactosidase. It counts as functional.
Experiment [16] concerns the target Disintegrin and metalloproteinase domain-containing protein 17 (Homo sapiens, UniProt P78536). Nature of the experiment: exosite inhibitors of ADAM17, dose response, biochemical (AID 743260).
Experiment [17] in a line: inhibition of ADAM10 peptide cleavage – biochemical, FRET peptide substrate, recombinant human ADAM10, selectivity assay for ADAM17 exosite inhibitor project, dose response (AID 743259).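 Further: ADAM10 enzyme cleaving a FRET peptide substrate.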
Experiment [18] in a line: blockers of HIV-1 envelope-mediated cell-cell fusion – cherry-pick, dose response (AID 652057). Format: functional, cell-based.
Experiment [19] is described as follows: viability loss in CEM21 cells – cell-based, CellTiter-Glo luminescence, cherry-picked, cytotoxicity control for viral fusion inhibitor project, dose response (AID 652042).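 Further: potency for signal decrease meaning cytotoxicity.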 It counts as functional. (Cellular ATP, detected with luciferase, serves as a proxy for viable cell number.)
The nature of experiment [20]: blockers of HIV-1 ZM109 envelope-driven cell-cell fusion – HeLa effector, CEM target cells, luciferase, cherry-pick, dose response (AID 652058).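 Further: luciferase signal from HIV-1 Env mediated cell-cell fusion of effector and target cells.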 It counts as functional, cell-based.
Experiment [21] in a line: HIV-1 AD8 envelope cell-cell fusion blockers – cherry-pick, dose response (AID 652062).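 Further: luciferase signal from cell-cell fusion driven by HIV-1 clade B AD8 Env; potency is for inhibitors of fusion seen as a drop in luminescence.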 Format: functional, cell-based.
A short description of experiment [22]: Late stage counterscreen for inhibitors of Trypanosoma brucei methionyl tRNA synthetase (MetRS): Luminescence-based cell-based high throughput dose response assay to identify compounds that are cytotoxic to Jurkat human T lymphocyte cells. It counts as functional.
Experiment [23] can be described thus: Late stage assay provider results from the probe development effort to identify selective inhibitors of heat shock protein 90 (HSP90): Absorbance-based cell proliferation assay in SKBR3 cells. The conditions noted are these: SK-BR-3. Format: functional.
Experiment [24] can be described thus: Late stage assay provider results from the probe development effort to identify selective inhibitors of heat shock protein 90 (HSP90): Absorbance-based cell proliferation assay in MCF7 cells. Format: functional.
The target of experiment [25] is Beta-lactamase (Pseudomonas aeruginosa, UniProt Q79MP6).
Sequence of Beta-lactamase (Pseudomonas aeruginosa, UniProt Q79MP6) (Q79MP6 whole entry): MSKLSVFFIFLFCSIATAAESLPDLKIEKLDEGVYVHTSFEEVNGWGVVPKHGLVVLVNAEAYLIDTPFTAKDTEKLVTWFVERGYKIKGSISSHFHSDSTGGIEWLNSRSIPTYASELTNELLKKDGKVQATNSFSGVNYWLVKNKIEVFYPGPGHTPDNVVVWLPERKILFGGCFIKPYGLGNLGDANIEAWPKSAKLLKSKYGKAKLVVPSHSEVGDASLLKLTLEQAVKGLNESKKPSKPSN
In experiment [26] the target is Beta-lactamase (Salmonella choleraesuis (strain SC-B67), UniProt Q5J463).
Sequence of Beta-lactamase (Salmonella choleraesuis (strain SC-B67), UniProt Q5J463) (Q5J463 whole entry): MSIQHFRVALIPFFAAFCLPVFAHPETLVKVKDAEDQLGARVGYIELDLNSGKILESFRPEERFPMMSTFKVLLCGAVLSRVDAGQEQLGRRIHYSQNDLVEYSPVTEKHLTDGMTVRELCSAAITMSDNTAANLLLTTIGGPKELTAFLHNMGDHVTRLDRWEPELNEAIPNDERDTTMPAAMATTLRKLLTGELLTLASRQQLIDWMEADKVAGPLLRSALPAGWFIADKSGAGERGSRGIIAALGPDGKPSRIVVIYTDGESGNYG

Sequence of Beta-galactosidase (Q8VNN2 whole entry, the tested form may be a part): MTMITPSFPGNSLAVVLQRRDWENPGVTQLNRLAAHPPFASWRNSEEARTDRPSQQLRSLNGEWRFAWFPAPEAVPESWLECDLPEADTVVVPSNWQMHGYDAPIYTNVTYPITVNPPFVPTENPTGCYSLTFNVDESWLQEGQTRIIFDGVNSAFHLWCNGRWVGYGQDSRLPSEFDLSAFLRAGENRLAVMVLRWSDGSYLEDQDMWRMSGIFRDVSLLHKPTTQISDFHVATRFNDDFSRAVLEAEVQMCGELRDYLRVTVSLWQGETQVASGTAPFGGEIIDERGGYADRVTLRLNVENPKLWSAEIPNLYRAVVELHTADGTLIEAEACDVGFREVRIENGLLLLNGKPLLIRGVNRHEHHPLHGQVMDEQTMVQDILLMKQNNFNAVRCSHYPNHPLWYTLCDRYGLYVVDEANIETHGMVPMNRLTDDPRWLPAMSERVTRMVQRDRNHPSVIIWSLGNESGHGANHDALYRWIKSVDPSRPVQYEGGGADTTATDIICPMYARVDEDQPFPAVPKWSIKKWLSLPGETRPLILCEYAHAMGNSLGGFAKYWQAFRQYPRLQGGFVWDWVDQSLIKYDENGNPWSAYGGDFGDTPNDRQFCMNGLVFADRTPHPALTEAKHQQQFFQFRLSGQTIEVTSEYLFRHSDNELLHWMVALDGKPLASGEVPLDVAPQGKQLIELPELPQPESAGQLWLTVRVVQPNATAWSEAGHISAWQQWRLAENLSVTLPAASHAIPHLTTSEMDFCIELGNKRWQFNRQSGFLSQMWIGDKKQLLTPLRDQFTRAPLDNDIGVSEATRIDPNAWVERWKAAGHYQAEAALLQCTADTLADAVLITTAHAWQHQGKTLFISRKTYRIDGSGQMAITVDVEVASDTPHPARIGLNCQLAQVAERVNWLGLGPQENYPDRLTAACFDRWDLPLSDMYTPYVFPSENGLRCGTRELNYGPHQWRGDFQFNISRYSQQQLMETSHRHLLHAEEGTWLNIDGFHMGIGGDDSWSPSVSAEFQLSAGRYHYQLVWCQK
Sequence of Disintegrin and metalloproteinase domain-containing protein 17 (P78536 whole entry, the tested form may be a part): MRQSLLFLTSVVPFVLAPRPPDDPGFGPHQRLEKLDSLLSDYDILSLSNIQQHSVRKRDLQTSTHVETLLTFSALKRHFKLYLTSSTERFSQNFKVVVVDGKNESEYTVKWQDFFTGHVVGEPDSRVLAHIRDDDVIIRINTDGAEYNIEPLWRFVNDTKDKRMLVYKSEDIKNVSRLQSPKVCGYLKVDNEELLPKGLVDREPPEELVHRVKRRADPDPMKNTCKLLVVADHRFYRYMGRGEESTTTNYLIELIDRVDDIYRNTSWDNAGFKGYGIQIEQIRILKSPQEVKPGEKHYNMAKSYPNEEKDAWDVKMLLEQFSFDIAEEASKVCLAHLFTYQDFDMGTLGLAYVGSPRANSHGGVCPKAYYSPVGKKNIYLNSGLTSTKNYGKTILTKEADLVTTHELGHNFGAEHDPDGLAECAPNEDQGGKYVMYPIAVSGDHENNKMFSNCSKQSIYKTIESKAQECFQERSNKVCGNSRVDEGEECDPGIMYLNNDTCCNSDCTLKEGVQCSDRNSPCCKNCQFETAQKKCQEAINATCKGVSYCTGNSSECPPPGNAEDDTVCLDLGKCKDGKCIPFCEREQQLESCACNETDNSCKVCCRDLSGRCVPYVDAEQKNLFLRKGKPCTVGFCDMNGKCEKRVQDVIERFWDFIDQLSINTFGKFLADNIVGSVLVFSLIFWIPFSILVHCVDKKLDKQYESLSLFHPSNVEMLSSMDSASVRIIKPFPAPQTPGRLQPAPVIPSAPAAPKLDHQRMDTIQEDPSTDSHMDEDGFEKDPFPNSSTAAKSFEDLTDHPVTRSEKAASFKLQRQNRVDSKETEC

As to `Cc1ccc(N=C(S)Nc2ccc(Cl)c(Cl)c2)c(OC(F)F)c1`, the AC50 in experiment [1] is 29.9 µM (active); in experiment [2], 26.6 µM (active); in experiment [3], 26.6 µM (active).

For the compound `CCS(=O)(=O)Nc1cc(-c2nc3cccnc3s2)ccc1C`, the EC50 in [4] was > 67.5 µM (inactive).

`NNc1nc(-c2ccccc2)nc2sc3c(c12)CCCC3`: the EC50 in [5] and in [6] was > 67.5 µM (inactive) throughout.

Regarding `COCCCN1C(=O)C(O)=C(C(=O)c2ccco2)C1c1ccc(Br)cc1` (centres undefined), in experiment [7], the inhibitory constant (Ki) was 14.7 µM (active).

Consider `C#Cc1ccc([C@@H]2C=C(C(=O)NCc3nc4ccccc4[nH]3)O[C@H](OCC)[C@H]2CCCO)cc1`, for which the values for the IC50 in experiment [8], in experiment [9] and in experiment [10] were 22.3 µM (inactive), 35.8 µM (inactive) and 8.94 µM (active), respectively.

For `Cc1ccc(C(=O)NCCN2C3=NC[C@@H](Cc4ccccc4)N3C[C@H]2Cc2ccc(O)cc2)cc1Br`, the IC50 was > 20 µM (inactive) in experiment [11], 19.4 µM (active) in experiment [12] and > 20 µM (inactive) in [13]. Moreover, the concentration at half-maximal activity (AC50) in [14] was 19.2 µM (active).

In the case of `O=C(/C=C/c1ccccc1)N1CCN(c2ccccn2)CC1`, in [15], the IC50 was > 80 µM (inactive).

`O=C(SCC(O)C(O)CS)c1cccs1` (centres undefined): the IC50 in experiment [16] is 3.76 µM (active); in experiment [17], 40.5 µM (inactive).

`OCc1nc2ccccc2n1CC(O)Cn1ccc2ccccc21` (centres undefined): the Ki in experiment [7] was > 66.7 µM (inactive).

As for `CC1CCC(NC(=O)c2cccn2C)CC1` (centres undefined), in experiment [4], the EC50 was > 67.6 µM (inactive).

With `COc1ccccc1N1CCN(C(=O)c2cc3cc(C)ccc3[nH]2)CC1`, the IC50 in [15] was > 80 µM (inactive).

Regarding `C[C@H](c1ccccc1)N1C[C@H](COCc2ccccc2)Oc2cc(N3CC[C@@H](O)C3)ccc2S1(=O)=O`, the IC50 in [16] was > 69.5 µM (inactive); in experiment [17], 16 µM (inactive).

As for `C[C@H](CO)N1C[C@H](C)[C@H](CN(C)S(=O)(=O)c2ccccc2)Oc2ccc(NC(=O)Nc3cccc4ccccc34)cc2CC1=O`, the AC50 in [18] was < 0.26 µM (active); in experiment [19], 31.7 µM (active); in [20], < 0.26 µM (active); in experiment [21], 0.685 µM (active).

For the compound `C[C@@H]1CCCCO[C@@H](CN(C)S(=O)(=O)c2ccc(F)cc2)[C@@H](C)CN([C@@H](C)CO)C(=O)c2cc(NS(=O)(=O)c3ccc(F)cc3)ccc2O1`, the half-maximal activity concentration (AC50) in experiment [2] and in experiment [3] was 17.1 µM (active) each time.

Turning to `O=C(NCc1nc2ccccc2[nH]1)C1=C[C@H](c2ccc(Br)cc2)C[C@H](OCCCCO)O1`, in [22], the IC50 was 66.7 µM (inactive).

For the compound `O=C(Nc1ccc(F)cc1)c1coc(=O)c(Br)c1`, the figures for the IC50 in experiment [23] and in [24] were 8.8 µM (active) and 3.4 µM (active), respectively.

As for `O=C1OC(=O)/C(=C\Nc2cnc3ccccc3c2)C=C1Br`, the IC50 in experiment [23] was 17.4 µM (inactive); in experiment [24] it was 12.1 µM (inactive).

Regarding `COCCCn1/c(=N/C(=O)c2ccccc2)c(C#N)cc2c(=O)n3cccc(C)c3nc21`, the IC50 in [25] and in [26] was > 59.6 µM (inactive) throughout.

`CCOC(=O)N1CCC(Nc2c(Nc3ccc(F)cc3)c(=O)c2=O)CC1`: the IC50 in [8] was 7.98 µM (active); in experiment [9] it was 83.3 µM (inactive); in experiment [10], 4.36 µM (active); in [22], > 83.3 µM (inactive).
